# Laboratory results as given in patent publication US4167580A, “Compositions and method of use to treat arthritic disease with m-fluorobenzimidoylacetonitrile” (American Cyanamid Company, priority 1978, dated 1979).
# How the values were obtained:
# [1] = test system: Carrageenin Induced Edema of the Rat Paw; experiment: Carrageenin induced edema of the rat paw (acute anti-inflammatory activity); type: in vivo, Royal Hart, Wistar strain rats; conditions: 5 hours after drug (4 hours after carrageenin)
# Experimental: In determining the acute anti-inflammatory activity of benzimidoylacetonitrile, Royal Hart, Wistar strain rats ranging in weight from 80 to 90 grams were used. The rats were fasted overnight prior to dosing but had free access to water. The compound was administered in aqueous suspension, by gavage, in a volume of 1.7 ml. per 50 grams of rat [corresponds by hydration volume used by Winter et al., Proc. Soc. […] The phlogistic agent used was carrageenin prepared as a sterile 1% suspension in 0.9% aqueous sodium chloride for routine testing. A volume of 0.05 ml. was injected through a 26 gauge needle into the planter tissue of the right hind paw. Measurements were made 5 hours after drug administration (4 hours after carrageenin challenge). Volumes of both the normal and carrageenin inflamed feet were determined. The difference between the two measurements is considered to be the increased edema due to the carrageenin administration.
# [2] = test system: Body Temperature of Pyretic Rats; experiment: Body temperature in yeast induced pyrexia; type: in vivo, Royal Hart, Wistar strain rats; conditions: 250 mg./kg. by gavage 17 hours after yeast; measured 19 hours post challenge
# Experimental: The effect of benzimidoylacetonitrile on body temperature in yeast induced pyrexia was determined by the following procedure. Groups of three Royal Hart, Wistar strain rats weighing 80±5 grams were injected subcutaneously in the nape of the neck with 0.6 ml. of a 40% suspension of dried brewers yeast in distilled water. […] At 19 hours post challenge the rectal temperature of each rat was measured with an electric thermometer. Each dose response experiment was replicated one or more times.
# [3] = test system: Adjuvant Arthritis in Rats; experiment: Adjuvant induced arthritis in rats (chronic inflammation with joint destruction); type: in vivo, Royal Hart, Wistar strain rats; conditions: once daily days 0-13
# Description: Adjuvant induced experimental polyarthritis is a specific systemic disease of the rat which shares interesting similarities with rheumatoid arthritis. Specifically, the histology of the two diseases bears a remarkable resemblance as shown by C. M. Pearson et al., Am. J. Pathol. 42, 73 (1963). E. M. Glenn, Am. J. Vet. Res. 27 (116), 339 (1966) has classified adjuvant induced polyarthritis as a crippling and permanent deformity resulting from diffuse connective tissue involvement around certain susceptible joints in the rat. Zahiri et al., Can. Med. Ass. J. 101, 269 (1969) have shown that the fusiform swelling of the distal joints is associated with edema, congestion and synovitis including pannus formation, all of which precede the ultimate destruction of bone and cartilage. Furthermore, Zahiri et al. indicate that the cartilage destruction in the joint is due to an invasive pannus which originates in the marginal synovium and extends across the articular surface to erode it. […] See S. Wong et al., J. Pharm. & Exptl. Ther. 185, 127 (1973) and G. R. Bobalick et al., Agents & Actions 4, 364 (1974). In a similar manner, inhibition of the progress of arthritis in paws of rats treated with the compounds of this invention also lessens associated joint deterioration.
# Groups of three Royal Hart, Wistar strain rats weighing 200±10 grams each were injected intradermally in the right hind paw with Freund's adjuvant (dried human tubercle bacilli in a mineral oil vehicle) at a dose of 2 mg./kg. of body weight. Test compounds were administered orally in a 1.5% staruh vehicle at various doses once daily on days 0 through 13 post challenge. Control rats were treated in a similar manner, but given only starch vehicle. On the 14th and 21st day post challenge the diameter of the injected paw (primary lesion) was measured by micrometer caliper. The volume of inflamed paws were estimated from these measurements and the results are expressed as percent inhibition of swelling as compared to controls. At the same time, the other inflamed sites, such as ears, paws and tail (secondary lesions) were observed and each rat was graded as to degree of inflammation and swelling present. The grading is based on a scale of 0 to 24, where 0 represents a complete absence of induced arthritic nodules and 24 represents the maximum degree of inflammation. The mean grade for each treated group is calculated and the effects of each compound are expressed as percent inhibition of the control grade. Table III records the results of these tests conducted with benzimidoylacetonitrile, m-fluorobenzimidoylacetonitrile and p-fluorobenzimidoylacetonitrile and known anti-inflammatory agents. The active compounds of the present invention suppress the progression of the arthritis and associated joint deterioration. Of particular interest is the low mortality observed with benzimidoylacetonitrile treated rats relative to either controls or rats treated with standard compounds.
# Erythema in Guinea Pigs = experiment: Ultraviolet induced erythema in guinea pigs, topical application; type: in vivo, Albino guinea pigs
# Experimental: Albino guinea pigs were depilitated on their flanks, the evening before testing, with a standard mixture of barium sulfide and gum acacia. On the morning of the test at 0 hour they were restrained in a plastic container which allows exposure of 3 circular spots. They were then exposed to ultraviolet irradiation from a "Hanovia" Kromayer lamp, model 10, for 60 seconds. Immediately after exposure to ultraviolet light, the guinea pigs were treated by dissolving the test compound in ethyl alcohol at various concentrations and swabbing the UV exposed areas with the aid of a cottom tipped applicator stick. At one and four hours, the degree of erythema for each of the three sites was assessed according to the following scoring system: 0=no erythema, 0.5=incomplete circle or faint erythema and 1.0=complete circle of distinct erythema. Thus, the maximum score for each animal was 3.0.
# arthritic paw swelling = conditions: Wong et al. 1973; Bobalick et al. 1974; cited from earlier work
# [4] = 1% in ethyl alcohol, maximum score 3.0, ethyl alcohol control 2.5
# [5] = 1% in ethyl alcohol, maximum score 3.0, ethyl alcohol control 3.0
smiles,measurement,setting,value
CCCCC1C(=O)N(c2ccccc2)N(c2ccccc2)C1=O [Phenylbutazone],C/T Edema Ratio (edema of control animals/edema of treated animals),[1]; 250 mg./kg. by gavage,2.3
same,Decrease In Body Temp.,[2],1.5 °C
same,"% Inhibition of Control Grade (secondary lesion), Day 14",[3]; 18.8 mg./kg. oral,4%
same,"% Inhibition of Control Grade (secondary lesion), Day 21",[3]; 18.8 mg./kg. oral,8%
same,"% Inhibition of Swelling (primary lesion), Day 14",[3]; 18.8 mg./kg. oral,31%
same,"% Inhibition of Swelling (primary lesion), Day 21",[3]; 18.8 mg./kg. oral,7%
same,Dead/Treated At 21 Days,[3]; 18.8 mg./kg. oral,2/21
same,"Mean Weight Gain, Day 14",[3]; 18.8 mg./kg. oral,50 grams
same,"Mean Weight Gain, Day 21",[3]; 18.8 mg./kg. oral,45 grams
same,"% Inhibition of Control Grade (secondary lesion), Day 14",[3]; 37.5 mg./kg. oral,18%
same,"% Inhibition of Control Grade (secondary lesion), Day 21",[3]; 37.5 mg./kg. oral,13%
same,"% Inhibition of Swelling (primary lesion), Day 14",[3]; 37.5 mg./kg. oral,56%
same,"% Inhibition of Swelling (primary lesion), Day 21",[3]; 37.5 mg./kg. oral,14%
same,Dead/Treated At 21 Days,[3]; 37.5 mg./kg. oral,5/39
same,"Mean Weight Gain, Day 14",[3]; 37.5 mg./kg. oral,53 grams
same,"Mean Weight Gain, Day 21",[3]; 37.5 mg./kg. oral,53 grams
same,"% Inhibition of Control Grade (secondary lesion), Day 14",[3]; 75 mg./kg. oral,27%
same,"% Inhibition of Control Grade (secondary lesion), Day 21",[3]; 75 mg./kg. oral,15%
same,"% Inhibition of Swelling (primary lesion), Day 14",[3]; 75 mg./kg. oral,62%
same,"% Inhibition of Swelling (primary lesion), Day 21",[3]; 75 mg./kg. oral,28%
same,Dead/Treated At 21 Days,[3]; 75 mg./kg. oral,2/39
same,"Mean Weight Gain, Day 14",[3]; 75 mg./kg. oral,51 grams
same,"Mean Weight Gain, Day 21",[3]; 75 mg./kg. oral,50 grams
same,"% Inhibition of Control Grade (secondary lesion), Day 14",[3]; 150 mg./kg. oral,54%
same,"% Inhibition of Control Grade (secondary lesion), Day 21",[3]; 150 mg./kg. oral,31%
same,"% Inhibition of Swelling (primary lesion), Day 14",[3]; 150 mg./kg. oral,75%
same,"% Inhibition of Swelling (primary lesion), Day 21",[3]; 150 mg./kg. oral,44%
same,Dead/Treated At 21 Days,[3]; 150 mg./kg. oral,2/27
same,"Mean Weight Gain, Day 14",[3]; 150 mg./kg. oral,40 grams
same,"Mean Weight Gain, Day 21",[3]; 150 mg./kg. oral,50 grams
same,Erythema Score (Avg.) 1 Hr.,Erythema in Guinea Pigs; [4],0.5
same,Erythema Score (Avg.) 4 Hr.,Erythema in Guinea Pigs; [5],2.4
COc1ccc2c(c1)c(CC(=O)O)c(C)n2C(=O)c1ccc(Cl)cc1 [Indomethacin],C/T Edema Ratio (edema of control animals/edema of treated animals),[1]; 25 mg./kg. by gavage,2.9
same,Decrease In Body Temp.,[2],2.5 °C
same,"% Inhibition of Control Grade (secondary lesion), Day 14",[3]; 0.25 mg./kg. oral,22%
same,"% Inhibition of Control Grade (secondary lesion), Day 21",[3]; 0.25 mg./kg. oral,4%
same,"% Inhibition of Swelling (primary lesion), Day 14",[3]; 0.25 mg./kg. oral,30%
same,"% Inhibition of Swelling (primary lesion), Day 21",[3]; 0.25 mg./kg. oral,4%
same,Dead/Treated At 21 Days,[3]; 0.25 mg./kg. oral,0/9
same,"Mean Weight Gain, Day 14",[3]; 0.25 mg./kg. oral,51 grams
same,"Mean Weight Gain, Day 21",[3]; 0.25 mg./kg. oral,57 grams
same,"% Inhibition of Control Grade (secondary lesion), Day 14",[3]; 0.5 mg./kg. oral,25%
same,"% Inhibition of Control Grade (secondary lesion), Day 21",[3]; 0.5 mg./kg. oral,17%
same,"% Inhibition of Swelling (primary lesion), Day 14",[3]; 0.5 mg./kg. oral,40%
same,"% Inhibition of Swelling (primary lesion), Day 21",[3]; 0.5 mg./kg. oral,20%
same,Dead/Treated At 21 Days,[3]; 0.5 mg./kg. oral,5/54
same,"Mean Weight Gain, Day 14",[3]; 0.5 mg./kg. oral,53 grams
same,"Mean Weight Gain, Day 21",[3]; 0.5 mg./kg. oral,51 grams
same,"% Inhibition of Control Grade (secondary lesion), Day 14",[3]; 1 mg./kg. oral,34%
same,"% Inhibition of Control Grade (secondary lesion), Day 21",[3]; 1 mg./kg. oral,20%
same,"% Inhibition of Swelling (primary lesion), Day 14",[3]; 1 mg./kg. oral,46%
same,"% Inhibition of Swelling (primary lesion), Day 21",[3]; 1 mg./kg. oral,19%
same,Dead/Treated At 21 Days,[3]; 1 mg./kg. oral,9/54
same,"Mean Weight Gain, Day 14",[3]; 1 mg./kg. oral,63 grams
same,"Mean Weight Gain, Day 21",[3]; 1 mg./kg. oral,65 grams
same,"% Inhibition of Control Grade (secondary lesion), Day 14",[3]; 2 mg./kg. oral,38%
same,"% Inhibition of Control Grade (secondary lesion), Day 21",[3]; 2 mg./kg. oral,25%
same,"% Inhibition of Swelling (primary lesion), Day 14",[3]; 2 mg./kg. oral,51%
same,"% Inhibition of Swelling (primary lesion), Day 21",[3]; 2 mg./kg. oral,24%
same,Dead/Treated At 21 Days,[3]; 2 mg./kg. oral,8/57
same,"Mean Weight Gain, Day 14",[3]; 2 mg./kg. oral,68 grams
same,"Mean Weight Gain, Day 21",[3]; 2 mg./kg. oral,68 grams
same,Erythema Score (Avg.) 1 Hr.,"Erythema in Guinea Pigs; 0.25% in ethyl alcohol, maximum score 3.0, control 2.5",1.8
same,Erythema Score (Avg.) 4 Hr.,"Erythema in Guinea Pigs; 0.25% in ethyl alcohol, maximum score 3.0, control 3.0",2.5
same,Erythema Score (Avg.) 1 Hr.,"Erythema in Guinea Pigs; 0.5% in ethyl alcohol, maximum score 3.0, control 2.5",1.5
same,Erythema Score (Avg.) 4 Hr.,"Erythema in Guinea Pigs; 0.5% in ethyl alcohol, maximum score 3.0, control 3.0",2.4
same,Erythema Score (Avg.) 1 Hr.,Erythema in Guinea Pigs; [4],0.7
same,Erythema Score (Avg.) 4 Hr.,Erythema in Guinea Pigs; [5],2.5
same,arthritic paw swelling (in words),arthritic paw swelling,inhibit arthritic paw swelling
same,joint and bone deterioration (in words),arthritic paw swelling,prevent joint and bone deterioration
